{"source": "paper PMC8262356", "about": "“SLC26A6-selective inhibitor identified in a small-molecule screen blocks fluid absorption in small intestine” (JCI Insight, 2021)", "target": "T1, slc26a4 (Mus musculus, UniProt Q9R155)", "T1 construct": "expressed in transfected cells; host or cells: FRT cells coexpressing YFP", "T1 sequence (Q9R155 1-780)": "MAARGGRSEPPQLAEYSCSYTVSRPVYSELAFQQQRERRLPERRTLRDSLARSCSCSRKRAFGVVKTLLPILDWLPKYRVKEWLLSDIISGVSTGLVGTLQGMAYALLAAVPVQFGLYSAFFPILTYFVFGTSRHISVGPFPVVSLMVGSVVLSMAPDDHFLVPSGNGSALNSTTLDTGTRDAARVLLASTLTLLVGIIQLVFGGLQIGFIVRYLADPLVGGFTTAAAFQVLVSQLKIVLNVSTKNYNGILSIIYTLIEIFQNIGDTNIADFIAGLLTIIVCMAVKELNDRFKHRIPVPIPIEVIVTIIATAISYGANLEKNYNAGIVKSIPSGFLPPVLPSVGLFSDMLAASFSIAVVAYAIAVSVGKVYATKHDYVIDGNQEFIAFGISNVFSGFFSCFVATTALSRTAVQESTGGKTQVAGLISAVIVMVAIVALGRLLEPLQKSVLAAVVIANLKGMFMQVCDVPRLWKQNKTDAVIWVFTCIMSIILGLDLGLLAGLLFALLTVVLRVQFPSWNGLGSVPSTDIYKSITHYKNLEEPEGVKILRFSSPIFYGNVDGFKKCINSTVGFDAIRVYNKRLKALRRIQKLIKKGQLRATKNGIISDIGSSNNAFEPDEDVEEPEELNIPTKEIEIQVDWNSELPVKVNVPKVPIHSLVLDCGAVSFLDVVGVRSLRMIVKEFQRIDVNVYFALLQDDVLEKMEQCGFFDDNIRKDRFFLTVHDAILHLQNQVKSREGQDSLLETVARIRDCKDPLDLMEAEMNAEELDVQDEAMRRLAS", "assay": "Selectivity: Cl-/I- exchange in FRT cells coexpressing YFP and slc26a4", "type": "cell-based", "conditions": "25 μM", "description": "PAT1inh-B01 selectivity was studied by testing its effects on related SLC26A family anion transporters and the Cl^– channel TMEM16A. These measurements used a similar Cl^–/I^– exchange protocol, but FRT cells separately expressed each of the SLC26A family members or TMEM16A. […] PAT1inh-B01 selectivity was also tested by short-circuit current (Isc) in well-differentiated human bronchial epithelial (HBE) cells, which have a complex ion transport mechanism that includes cystic fibrosis transmembrane conductance regulator (CFTR), epithelial Na^+ channel (ENaC), and Ca^+2-activated chloride channels (CaCCs) ([13]). […] Potential PAT1inh-B01 cytotoxicity was studied in FRT cells.\nFigure 3 PAT1inh-B01 selectivity and cytotoxicity. […] Cl^–/I^– exchange or I^– influx measured in FRT cells coexpressing YFP and SLC26A isoforms or TMEM16A, with data shown for 25 μM PAT1inh-B01, DMSO vehicle control, and 500 μM niflumic acid (positive control for SLC26A transporters) or 10 μM TMinh-23 (positive control for TMEM16A). […] (C) (left) Short-circuit current (Isc) in well-differentiated HBE cells measured in the absence (top) and presence (bottom) of 25 μM PAT1inh-B01. […]\nYFP-based cellular assays of slc26a3, slc26a4, SLC26A9, and TMEM16A function were performed as described previously ([7]). […] The activities of ENaC, CFTR, and CaCC were determined using well-differentiated HBE cells as described previously ([13]). […]"}
{"smiles": "Cc1c(Br)c(C(F)(F)F)nn1CC(=O)N1CCc2nc3cc(-c4ccccc4)[nH]n3c(=O)c2C1", "note": "[PAT1inh-B01]", "values": [{"measurement": "inhibition of slc26a4", "value": "did not significantly inhibit"}]}
